# Experimental data reported in patent US4156725A (priority 1972, dated 1979).
# pIC50: −log10 of the molar value.
# Tests used:
# Derm. dermatonomous = conditions: British Pat. No. 1303171 and application No. 36289/70; cited from earlier work
# Cl. perfringens = conditions: British Pat. No. 1303171 and application No. 36289/70; cited from earlier work
# [1] = target: hydroxymethyldihydropteridine pyrophosphokinase (HMPPS) (Escherichia coli, UniProt P26281); assay: Inhibition of the enzymes of dihydropteroate biosynthesis (ATP-γ-P32 transfer / dihydropteroate-C14 formation); format: biochemical; conditions: E. coli enzyme extract; tests of Example K; read-out: concentration giving 50% inhibition
# Protocol: The inhibiting activity against HMPPS of a selected compound of formula (I) can, for instance, be tested by monitoring the transfer of the terminal phosphate of adenosinetriphosphate ATP-γ-p^32 to `dihydropteridine`. […] Such inhibition may, for instance, be easily and simply carried out by incubating an extract of E. coli with pAb-7-C^14, ATP, Mg and `dihydropteridine`. The formation of the dihydropteroate-C^14 can be quantitatively assayed after separating the unreacted pAB substrate, for instance by chromatography. […] Preferably the value is 25 μM or less, such as in the range between 2 to 12 μM. Generally a value below 7 μM is desirable. […]
# (a) An assay for HMPPS was developed in which the transfer of the terminal phosphate of ATP-γ-P^32 to Pt could be monitored and correlated with the amount of inhibition of HMPPS by the compound under test. […]
# Tubes 1 to 9 containing the amounts of components shown in the Table, were filled up to 200 μl with distilled water, incubated for 60 minutes at 37° C. and then chilled on ice. […] The charcoal and the filter were then radioactively counted. […]
# (b) The activity of the test compound of formula (I) against `synthetase` was determined as follows, by monitoring the formation of dihydropteroate C^14. […]
# Sequence of hydroxymethyldihydropteridine pyrophosphokinase (HMPPS) (P26281 whole entry): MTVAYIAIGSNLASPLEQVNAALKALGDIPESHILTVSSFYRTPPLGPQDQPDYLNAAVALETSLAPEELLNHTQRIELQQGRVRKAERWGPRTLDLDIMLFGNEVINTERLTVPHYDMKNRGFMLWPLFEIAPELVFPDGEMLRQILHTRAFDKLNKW
Structure (SMILES),bacteriostatic activity (Derm. dermatonomous),bacteriostatic activity (Cl. perfringens),pIC50 [1]
"CC1(C)Nc2nc(N)nc(O)c2N=C1CO [2-amino-4-hydroxy-6-hydroxymethyl-7,7-dimethyl-7,8-dihydropteridine]",particularly effective,particularly effective,–
"CC1(C)Nc2nc(N)nc(O)c2N=C1COc1ccccc1 [A, 2-Amino-4-hydroxy-6-phenoxymethyl-7,7-dimethyl-7,8-dihydropteridine]",–,–,4.77
"CC1=Nc2c(O)nc(N)nc2NC1(C)C [2-amino-4-hydroxy-6-methyl-7,7-dimethyl-7,8-dihydropteridine]",particularly effective,particularly effective,–
